Legend:
sFd-35-ER = assay: Complementation of E. coli EW11 growth by sFd-35-ER with 4-HT and other estrogen receptor modulators; assay type: cell-based, Escherichia coli
Experimental: Growth assay. For all growth experiments, E. coli EW11 were freshly transformed with two plasmids, one encoding the e-donor and acceptor pair (FNR and SIR) and the other encoding either a native Fd, a C42A mutant of Ml Fd that is unable to coordinate a 2Fe-2S cluster, or an engineered Fd. Starter cultures were inoculated using single colonies obtained by selecting for colonies containing both plasmids on LB-agar plates. These starter cultures were grown in deep-well 96-well plates for 18 hours at 37° C. in 1 mL of a non-selective modified M9 medium (M9c), which contained sodium phosphate, dibasic (6.8 g/L), sodium phosphate, monobasic (3 g/L), sodium chloride (0.5 g/L), ammonium chloride (1 g/L), calcium chloride (0.1 mM), magnesium sulfate (10 mM), ferric citrate (24 mg/L), p-aminobenzoic acid (2 mg/L), inositol (20 mg/L), adenine (5 mg/L), uracil (20 mg/L), tryptophan (40 mg/L), tyrosine (1.2 mg/L), and the remaining 18 amino acids (80 mg/L each). For auxotroph complementation analysis, starter cultures that had been grown to stationary phase in M9c were diluted ˜1:100 using a 96-well replicator pin into 100 μL of a selective modified M9 medium (M9sa), which is identical to M9c but lacks cysteine and methionine. […] Optical density (OD) measurements were taken every 10 minutes. To select for the Fd and e-donor/acceptor plasmids, all growth steps included chloramphenicol and streptomycin at 34 μg/mL and 100 μg/mL, respectively.
To test whether this domain-insertion strategy can be used to diversify the chemical regulation of sFd-35, the ligand-binding domain (LBD) of the human estrogen receptor (ER) was inserted after residue 35 to create sFd-35-ER (FIG. 26E).
(§1) The activity of sFd-35-ER was evaluated by expressing this protein using an aTc-inducible promoter (FIG. 31B). […] This protein was also expressed as a fusion to RFP (sFd-35-ER-RFP) to evaluate how 4-HT affects protein expression.
To evaluate how these different modulators affect sFd-35-ER ET, sFd-35-ER growth complementation was evaluated in the presence of agonists, antagonists, and an endocrine disruptor (FIG. 32D).

sFd-35-ER-RFP = conditions: 4-HT in ethanol compared to ethanol alone
Experimental: Fluorescence spectroscopy.
as §1

[1] = system: split Fd fused to estrogen receptor
[2] = system: lysates derived from E. coli EW11 expressing FNR and SIR; assay: Sulfide production assay in cell lysates (sulfidefluor-7 fluorescence); assay type: biochemical, Escherichia coli; conditions: no Fd added
Experimental: Cell lysates. Electrocompetent E. coli EW11 were transformed with the plasmid (pSAC01) that constitutively expresses Zea mays FNR and SIR. Cells were grown to stationary phase at 37° C. and 250 rpm in 2×YTPG medium (16 g/L tryptone, 10 g/L yeast extract, 5 g/L NaCl, 3 g/L KH2PO4, 7 g/L K2HPO4, and 18 g/L glucose) containing 100 μg/mL streptomycin. Cells from overnight cultures were diluted 1:100 in fresh 2×YTPG medium containing streptomycin, grown for 2 hours at 37° C. while shaking at 250 rpm until mid-log phase, and then shifted to 30° C. and grown for an additional 4 hours. […] Protein content in lysates was quantified using Bio-Rad Protein Assay Dye Reagent Concentrate (Bio-Rad), using bovine serum albumin (NEB) as a standard.
Sulfide production assay. […] Following NADPH or protein addition, reactions were arrayed in a Corning 96 well plate at room temperature (Cost ar #3603), transferred to an Infinite m1000 Pro plate reader (Tecan), and heated to 37° C. and shaken at 250 rpm with fluorescence readings (λex=495 nm, λem=520 nm) every 15 seconds. […]
SIR activity was monitored in desalted cell lysates using sulfidefluor-7 (Lin et al., 2013), a fluorescent probe for hydrogen sulfide. […]

sFd-35-ER, sequence (P03372 311-547): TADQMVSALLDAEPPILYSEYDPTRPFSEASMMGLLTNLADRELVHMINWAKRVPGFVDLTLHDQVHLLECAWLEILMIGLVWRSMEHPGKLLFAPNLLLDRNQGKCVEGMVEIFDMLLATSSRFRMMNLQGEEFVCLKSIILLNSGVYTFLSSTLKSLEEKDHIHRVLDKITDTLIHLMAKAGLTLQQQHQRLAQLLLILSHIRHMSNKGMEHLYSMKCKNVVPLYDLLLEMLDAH
split Fd fused to estrogen receptor, sequence (P03372 311-547 limits assumed): as the sequence (P03372 311-547) above
sFd-35-ER-RFP, sequence (P03372 311-547 limits assumed): as the sequence (P03372 311-547) above

## 4-hydroxytamoxifen [4-HT]
sFd-35-ER
  4-HT concentration at which growth of sFd-35-ER is enhanced significantly above the C42A mutant: ≥ 6.25 µM
  Activation of sFd-35-ER ET (growth complementation): activated
  Effect of estrogen receptor modulators on complementation of E. coli EW11 by sFd-35-ER, compared to DMSO alone: significantly enhance growth
sFd-35-ER; read-out: k1/2 4-HT, complementation of E. coli EW11 by sFd-35-ER
  EC50: 2.11 µM
sFd-35-ER-RFP
  Effect of 4-HT on relative fluorescence of cells expressing sFd-35-ER-RFP: no significant increase in fluorescence
[1]
  effect of 4-HT addition alone on rate: does not affect rate
[1]; 4-HT added at t=0
  time after chemical addition at which the higher rate of sulfide production is detectable: ≤ 1.5 min
[2]
  sulfide production rate on adding 4-HT alone: not enhanced

Reference: US11407792B2, “Regulating electron flow using fragmented proteins” (WILLIAM MARSH RICE UNIVERSITY, priority 2017, dated 2022)
